Measured values: PMC6382704, “LPM580098, a Novel Triple Reuptake Inhibitor of Serotonin, Noradrenaline, and Dopamine, Attenuates Neuropathic Pain” (Frontiers in Pharmacology, 2019)

What was measured:
[1] = target: T1, SERT (serotonin transporter) (Homo sapiens, UniProt P31645); experiment: radioligand displacement of [3H]imipramine, CHO cell membranes
T1 construct: gene SLC6A4

[2] = target: T2, NET (norepinephrine transporter) (Homo sapiens, UniProt P23975); experiment: radioligand displacement of [3H]nisoxetine, CHO cell membranes
T2 construct: gene SLC6A2
T2 sequence (P23975 whole entry): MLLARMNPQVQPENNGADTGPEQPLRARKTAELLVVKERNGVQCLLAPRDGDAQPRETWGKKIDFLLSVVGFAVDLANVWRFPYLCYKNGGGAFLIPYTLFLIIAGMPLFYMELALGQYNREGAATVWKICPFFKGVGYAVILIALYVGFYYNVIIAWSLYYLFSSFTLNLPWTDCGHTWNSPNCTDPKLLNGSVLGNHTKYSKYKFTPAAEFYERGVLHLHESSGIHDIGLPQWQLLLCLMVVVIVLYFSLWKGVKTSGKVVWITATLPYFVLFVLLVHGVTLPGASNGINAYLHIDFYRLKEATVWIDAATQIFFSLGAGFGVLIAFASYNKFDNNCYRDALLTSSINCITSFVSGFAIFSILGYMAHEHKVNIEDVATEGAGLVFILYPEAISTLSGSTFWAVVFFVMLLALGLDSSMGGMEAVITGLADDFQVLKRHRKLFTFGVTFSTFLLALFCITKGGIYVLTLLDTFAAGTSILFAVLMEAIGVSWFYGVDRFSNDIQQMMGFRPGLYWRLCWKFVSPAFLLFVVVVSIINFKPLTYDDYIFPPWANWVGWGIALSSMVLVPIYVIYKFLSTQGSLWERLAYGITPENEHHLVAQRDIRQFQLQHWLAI

[3] = target: T3, DAT (dopamine transporter) (Homo sapiens, UniProt Q01959); experiment: radioligand displacement of [3H]BTCP, CHO cell membranes
T3 construct: gene SLC6A3
T3 sequence (Q01959 whole entry): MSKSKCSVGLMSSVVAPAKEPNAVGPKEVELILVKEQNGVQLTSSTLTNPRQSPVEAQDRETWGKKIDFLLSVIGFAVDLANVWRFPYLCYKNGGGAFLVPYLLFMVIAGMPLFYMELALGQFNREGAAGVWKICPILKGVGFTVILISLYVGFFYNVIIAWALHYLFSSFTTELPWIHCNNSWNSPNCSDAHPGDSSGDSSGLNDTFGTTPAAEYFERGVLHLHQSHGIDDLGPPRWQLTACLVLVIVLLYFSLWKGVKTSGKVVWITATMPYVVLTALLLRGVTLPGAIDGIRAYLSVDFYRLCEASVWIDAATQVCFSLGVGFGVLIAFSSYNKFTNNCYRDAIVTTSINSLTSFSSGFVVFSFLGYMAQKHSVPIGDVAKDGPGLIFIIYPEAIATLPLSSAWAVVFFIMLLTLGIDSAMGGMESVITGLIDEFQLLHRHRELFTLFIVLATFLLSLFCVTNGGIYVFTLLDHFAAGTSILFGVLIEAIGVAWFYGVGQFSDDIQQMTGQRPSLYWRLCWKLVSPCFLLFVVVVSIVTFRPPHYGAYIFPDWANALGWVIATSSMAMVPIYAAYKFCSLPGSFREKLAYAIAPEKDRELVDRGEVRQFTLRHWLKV

T1 sequence (P31645 whole entry): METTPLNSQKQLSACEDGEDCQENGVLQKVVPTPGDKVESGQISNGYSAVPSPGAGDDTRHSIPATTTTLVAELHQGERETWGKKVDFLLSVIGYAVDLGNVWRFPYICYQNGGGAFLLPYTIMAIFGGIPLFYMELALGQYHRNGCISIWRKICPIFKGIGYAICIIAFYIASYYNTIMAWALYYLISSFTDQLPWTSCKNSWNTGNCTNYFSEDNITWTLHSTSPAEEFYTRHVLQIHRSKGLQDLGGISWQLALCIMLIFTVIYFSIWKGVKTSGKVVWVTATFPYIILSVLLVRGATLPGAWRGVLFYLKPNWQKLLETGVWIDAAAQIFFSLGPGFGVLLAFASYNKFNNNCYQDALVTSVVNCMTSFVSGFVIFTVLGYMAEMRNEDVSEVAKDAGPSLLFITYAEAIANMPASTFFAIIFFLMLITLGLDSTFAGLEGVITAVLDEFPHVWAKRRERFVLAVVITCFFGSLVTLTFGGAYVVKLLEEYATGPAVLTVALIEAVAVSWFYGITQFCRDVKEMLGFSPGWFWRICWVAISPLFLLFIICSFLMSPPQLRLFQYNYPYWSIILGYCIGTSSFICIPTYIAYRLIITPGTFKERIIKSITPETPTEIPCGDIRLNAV

Work on `CN(C)CC(c1ccc(Oc2ccccc2)cc1)C1(O)CCCCC1` (stereo not drawn) [LPM580098, 1-[2-(dimethylamino)-1-(4-phenoxyphenyl)ethyl] cyclohexanol] yielded an inhibition at 10 µM [1] of 90.3%, an inhibition at 10 µM [2] of 45% and an inhibition at 10 µM [3] of 77.5%.
